Laboratory results from PMC13586173, “Synthetic cannabinoid receptor agonists inhibit the cardiac voltage-gated potassium channel hERG” (Acta Pharmacologica Sinica, 2026).
Where two headings read alike, the source gives them in different places.

How the values were obtained:
[1] = system: hERG; conditions: cited from earlier work
[2] = target: hERG (KV11.1) (Homo sapiens, UniProt Q12809); experiment: Automated planar patch-clamp (APC, QPatch II 48), voltage-ladder protocol, CHO cells stably expressing human hERG
hERG (KV11.1), sequence (Q12809 whole entry): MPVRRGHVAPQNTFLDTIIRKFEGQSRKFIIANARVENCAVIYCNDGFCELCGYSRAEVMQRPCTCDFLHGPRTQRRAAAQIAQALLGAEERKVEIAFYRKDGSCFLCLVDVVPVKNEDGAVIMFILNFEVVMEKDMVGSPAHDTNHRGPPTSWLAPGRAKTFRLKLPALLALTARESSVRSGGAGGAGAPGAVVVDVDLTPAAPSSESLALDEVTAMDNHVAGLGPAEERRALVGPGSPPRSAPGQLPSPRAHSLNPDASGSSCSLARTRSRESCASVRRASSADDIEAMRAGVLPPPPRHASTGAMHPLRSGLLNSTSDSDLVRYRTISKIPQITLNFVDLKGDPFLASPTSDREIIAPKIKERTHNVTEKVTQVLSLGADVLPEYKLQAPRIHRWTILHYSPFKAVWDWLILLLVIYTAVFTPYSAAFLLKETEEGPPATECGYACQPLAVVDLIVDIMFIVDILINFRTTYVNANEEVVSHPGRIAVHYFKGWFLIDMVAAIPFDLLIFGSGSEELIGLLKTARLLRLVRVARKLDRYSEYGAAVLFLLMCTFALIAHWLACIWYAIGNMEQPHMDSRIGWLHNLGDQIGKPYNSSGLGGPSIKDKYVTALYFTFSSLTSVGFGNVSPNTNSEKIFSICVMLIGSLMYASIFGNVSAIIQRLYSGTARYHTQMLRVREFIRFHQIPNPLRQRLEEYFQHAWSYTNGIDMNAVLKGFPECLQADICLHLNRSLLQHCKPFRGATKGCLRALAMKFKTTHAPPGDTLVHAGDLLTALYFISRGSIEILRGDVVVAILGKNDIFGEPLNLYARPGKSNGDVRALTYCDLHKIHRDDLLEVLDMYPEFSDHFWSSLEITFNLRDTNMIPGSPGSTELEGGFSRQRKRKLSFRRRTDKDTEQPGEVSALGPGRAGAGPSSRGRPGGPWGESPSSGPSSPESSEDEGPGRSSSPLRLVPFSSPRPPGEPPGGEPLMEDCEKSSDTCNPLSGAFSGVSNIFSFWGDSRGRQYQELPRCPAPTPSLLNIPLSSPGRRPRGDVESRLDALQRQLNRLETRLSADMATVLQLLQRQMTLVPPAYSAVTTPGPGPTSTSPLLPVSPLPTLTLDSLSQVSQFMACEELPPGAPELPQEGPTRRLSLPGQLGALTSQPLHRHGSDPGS
Text: To assess the effect of a large set of SCRAs on hERG (see SI Table I and SI Fig. S1 for a list of the 36 included SCRAs and corresponding structures), we used the automated planar patch-clamp (APC) technique on mammalian Chinese hamster ovary (CHO) cells stably expressing human hERG. […] We employed a voltage-ladder protocol to obtain information on SCRA effects on the channel’s voltage dependence of activation (V50) and maximal conductance (Gmax) (both determined from Boltzmann fits of the instantaneous tail currents; see Methods for details).
Stably expressing cell lines “CHO-hERG DUO” (here referred to as hERG; gene: KCNH2) and “CHO-KVLQT1/mink” (here referred to as KV7.1/KCNE1; gene: KCNQ1/KCNE1), (B’SYS GmBH, Witterswil, Switzerland) were used to study whole-cell K^+ currents on a QPatch II 48 APC system (Sophion Bioscience A/S, Ballerup, Denmark). Cell culture and passaging were performed in accordance with standard operating procedures. Cells were harvested in serum-free medium with Detachin^TM (Genlantis, CA, USA) immediately prior to experiments. For MPC on transient cell lines, CHO-K1 CCL-61 cells (ATCC, Manassas, VA, USA) were cultured in Ham’s F-12 medium supplemented with 10% fetal bovine serum (FBS) and 100 U/mL penicillin–100 µg/mL streptomycin (Gibco, Thermo Fisher Scientific, Waltham, MA, USA). Transfection was carried out using JetOPTIMUS® reagent (Polyplus, Strasbourg, France) according to the manufacturer’s protocol. Briefly, 80,000 cells were seeded per well in a 12-well plate and transfected with 300 ng of pcDNA3-GFP plasmid, 700 ng of pcDNA3-hERG plasmid with either the wild-type or mutant channels (S624A, S649A, or Y652A), and […] of JetOPTIMUS. After 8 h, cells were detached and reseeded at a density of 30,000 cells per well onto several poly-D-lysine-coated glass coverslips placed in a 12-well plate. For the CB1 receptor activity assay, the AequoScreen® recombinant Chinese hamster ovary (CHO) K1 cell line, stably expressing the human CB1 receptor (ES-110-A), was used (Revvity, Sollentuna, Sweden).
Automated patch-clamp recordings were performed at 22 °C. Freshly harvested cell suspensions (2–3 million cells/mL) were prepared for experiments by the QPatch II 48 automated cell preparation unit. Cells were centrifuged for 150 s at 150 × g and washed twice with the extracellular recording solution. Cells were handled by the integrated pipetting robot and added to the 48 experiment sites on the planar patch-clamp consumable QPlate. Each experiment site contained an individual pair of recording electrodes and a silicon/glass biochip embedded in the flow channels. Single-cell patch recordings (n = 1 is defined as one single-cell patch) and population patch recordings (up to 10 cells per well, n = 1 is defined as one population patch) were performed for hERG and for KV7.1/KCNE1, respectively. Cells were applied, positioned and sealed to the patch holes by a mild suction protocol; whole-cell access was then achieved by a stronger suction pulse.
The intracellular solution contained (in mM): 100 KCl, 4.3 CaCl2, 1.4 MgCl2, 25/10 KOH/EGTA, 24 KF, 10 HEPES, and 4 Mg-ATP (hERG) or 4 Na-ATP (KV7.1/KCNE1). […] The compounds were pre-diluted in DMSO, and the final concentration of DMSO (0.3%) was equal in all recording solutions to control for vehicle effects. The compounds made no contact with plastics following dilution in extracellular solution.
An overview of experimental conditions is provided in SI Table VII, Square voltage pulses in a voltage ladder protocol were used to study current/voltage (I(V)) relationships. Each voltage protocol was first run three times in the presence of vehicle (extracellular solution supplemented with 0.3% DMSO), the 3rd serving as the baseline. Voltage protocols were repeated in the presence of 4 cumulatively rising concentrations of test compound, followed by application of vehicle for recovery.

[3] = target: T1, human CB1 receptor (Homo sapiens, UniProt P21554); experiment: AequoScreen intracellular calcium release assay, CHO-K1 cells stably expressing CB1; format: cell-based; conditions: n ≥ 3 (JWH-030 n = 2); for EC50: CB1 receptor Potency EC50, normalized to median EC50 of JWH-018; for CB1 receptor Efficacy Emax: normalized to maximum of JWH-018
T1 construct: host or cells: CHO-K1 stably expressing CB1, apoaequorin and Gα16
T1 sequence (P21554 whole entry): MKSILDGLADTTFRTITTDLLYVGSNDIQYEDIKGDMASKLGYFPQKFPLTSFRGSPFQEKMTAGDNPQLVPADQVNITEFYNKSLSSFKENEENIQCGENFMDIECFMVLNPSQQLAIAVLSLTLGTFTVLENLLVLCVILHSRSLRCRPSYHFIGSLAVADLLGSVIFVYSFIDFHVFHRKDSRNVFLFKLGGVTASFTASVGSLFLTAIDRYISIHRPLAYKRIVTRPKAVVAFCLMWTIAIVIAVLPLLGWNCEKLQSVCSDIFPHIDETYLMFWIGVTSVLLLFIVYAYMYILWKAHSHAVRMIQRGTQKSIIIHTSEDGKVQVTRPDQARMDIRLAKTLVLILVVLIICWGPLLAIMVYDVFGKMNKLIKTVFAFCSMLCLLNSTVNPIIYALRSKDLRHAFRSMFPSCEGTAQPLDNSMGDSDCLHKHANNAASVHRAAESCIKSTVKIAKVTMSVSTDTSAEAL

[4] = target: KV7.1/KCNE1 (Homo sapiens, UniProt P51787); experiment: Automated patch-clamp (APC, population patch), CHO cells stably expressing human KV7.1/KCNE1; format: cell-based; conditions: for KV7.1/KCNE1 channel Efficacy (max reduction in Gmax) Gmin: best fit, 1 = no reduction of Gmax, 0 = complete reduction
KV7.1/KCNE1, sequence (P51787 whole entry): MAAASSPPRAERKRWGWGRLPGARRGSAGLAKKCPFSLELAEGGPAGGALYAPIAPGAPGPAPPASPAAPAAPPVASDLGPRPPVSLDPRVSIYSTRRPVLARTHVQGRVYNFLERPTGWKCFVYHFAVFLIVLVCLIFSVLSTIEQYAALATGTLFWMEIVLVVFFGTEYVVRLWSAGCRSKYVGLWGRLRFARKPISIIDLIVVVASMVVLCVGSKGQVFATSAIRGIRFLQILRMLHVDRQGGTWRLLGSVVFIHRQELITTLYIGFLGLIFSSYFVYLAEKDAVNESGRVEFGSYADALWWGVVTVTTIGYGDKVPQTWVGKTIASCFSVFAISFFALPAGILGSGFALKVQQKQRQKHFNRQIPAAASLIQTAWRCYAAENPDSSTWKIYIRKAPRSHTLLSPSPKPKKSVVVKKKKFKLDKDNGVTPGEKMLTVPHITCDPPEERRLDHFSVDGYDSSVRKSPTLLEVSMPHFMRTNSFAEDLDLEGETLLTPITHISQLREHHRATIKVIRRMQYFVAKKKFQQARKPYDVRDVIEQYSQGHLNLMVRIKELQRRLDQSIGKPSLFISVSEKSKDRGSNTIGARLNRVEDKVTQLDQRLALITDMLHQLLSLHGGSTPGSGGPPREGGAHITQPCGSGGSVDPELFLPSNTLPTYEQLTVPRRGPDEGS
Method: Both hERG and KV7.1/KCNE1 contribute to cardiomyocyte repolarization (Fig. 1g). Inhibition of KV7.1/KCNE1 alone can be proarrhythmic. Moreover, under conditions with impaired hERG function, upregulation of KV7.1/KCNE1 has been proposed to partially compensate for the loss of hERG [38, 39]. […] To assess if SCRAs also affect KV7.1/KCNE1, we used mammalian CHO cells stably expressing human KV7.1/KCNE1. […] At 10 µM, 7 of the SCRAs caused a significant positive shift in V50 (Fig. 5e), with the largest shift induced by MDMB-[…] (ΔV50 = +10.3 ± 1.6 mV).
Automated patch-clamp recordings were performed at 22 °C.
For the KV7.1/KCNE1 voltage ladder protocol (SI Table VII) the solutions were present for 60 s before recording started. KV7.1/KCNE1 cells were kept at a holding voltage of −90 mV, with brief hyperpolarizing steps to −100 mV for 540 ms (to calculate ohmic leakage). […] The time between compound application and the first voltage protocol was 60 s. Time between sweeps was 15 s. The voltage ladder protocol was executed every 220 s.
For Gmax (rel.), N was set to –1. For ΔV50, N was set to 1.

[5] = system: hERG; conditions: cited from earlier work; remark: listed apart in the source
[6] = rats; cited from earlier work
[7] = experimentally observed effect of 10 µM, used in ORd simulation

| Compound | hERG inhibition (in words) [1] | IC50 ([1]; read-out: hERG IC50, HEK293 cells, 37 °C) [µM] | IC50 [2] [µM] | hERG channel Efficacy (max reduction in Gmax) Gmin, marked ? ([2]; ? Unreliable values (fit failed QC, extrapolated)) | effect on Gmax of hERG (in words) ([2]; APC concentration-response, 1.11 to 30 µM) | EC50 [3] [µM] | CB1 receptor Efficacy Emax [3] [% JWH-018] | IC50 [4] [µM] | Gmax effect on hERG versus KV7.1/KCNE1 (in words) ([4]; 10 µM, both channels by APC) | KV7.1/KCNE1 channel Efficacy (max reduction in Gmax) Gmin [4] | hERG channel Efficacy (max reduction in Gmax) Gmin ([2]; best fit, 1 = no reduction of Gmax, 0 = complete reduction, APC, 22 °C) | remaining IKr (hERG Gmax) [2, 7] [%] | hERG inhibition (in words) [5] | IC50 ([5]; read-out: in vitro hERG IC50, test pulse 1 s) [µM] | QT interval (in words) [6] | effect on KV7.1/KCNE1 (in words) ([4]; APC) | remaining IKs (KV7.1/KCNE1 Gmax) [4, 7] [%] |
| --- | --- | --- | --- | --- | --- | --- | --- | --- | --- | --- | --- | --- | --- | --- | --- | --- | --- |
| O=C(NC12CC3CC(CC(C3)C1)C2)c1nn(CCCCCF)c2ccccc12 [5F-APINACA] | inhibit hERG | 2.2 | > 100 | 0.00 | inhibitory effects on Gmax | 0.0166 | 102 | 35.1 | only on KV7.1/KCNE1 | 0 | – | – | – | – | – | – | – |
| CCCCCn1ccc(C(=O)c2cccc3ccccc23)c1 [JWH-030] | – | – | 23.1 | – | – | 0.291 | 76.5 | 12.2 | – | 0 | 0.00 | 74 | inhibits the voltage-gated potassium channel hERG | 88.4 | prolongs the QT interval in rats | largest reduction in Gmax | 49 |
